Where two headings read alike, the source gives them in different places.
Key:
Type in all cases: biochemical
PAK4 = PAK4 (Homo sapiens, UniProt O96013); test: In vitro PAK inhibition assay (Z'-LYTE, SelectScreen), PAK4
Description: (§1) Compounds are screened in 1% DMSO (final) in the well. For 10 point titrations, 3-fold serial dilutions are conducted. All Peptide/Kinase Mixtures are diluted to a 2× working concentration in the appropriate Kinase Buffer
The 2×PAK-4/Ser/Thr 20 mixture is prepared in 50 mM HEPES pH 7.5, 0.01% BRIJ-35, 10 mM MgCl2, 1 mM EGTA. The final 10 μL Kinase Reaction consists of 0.1-0.75 ng PAK-4 and 2 μM Ser/Thr 20 in 50 mM HEPES pH 7.5, 0.01% BRIJ-35, 10 mM MgCl2, 1 mM EGTA. After the 1 hour Kinase Reaction incubation, 5 μL of a 1:256 dilution of Development Reagent A is added.
(§2) 1. Add the following solutions to a well in a 384-well plate: • 2.5 μL of 4× Test Compound OR (100 nL 100× Test Compound plus 2.4 μL kinase buffer) • 5 μL of 2× Peptide/Kinase (PAK) Mixture • 2.5 μL of 4×ATP Solution
(§3) 3. Incubate the PAK Kinase Reaction at room temperature for 60-minutes
(§4) 4. Add 5 μL of Development Reagent Solution to each well
(§5) 6. Incubate the Development Reaction for 60-minutes
(§6) 7. Determine the fluorescence using a fluorescence plate reader
SelectScreen® Kinase Profiling Service uses XLfit from IDBS. The dose response curve is curve fit to model number 205 (sigmoidal dose-response model).
The table below provides specifications and data around each kinase. The representative IC50 value with a known inhibitor for each kinase was determined at the ATP bin nearest to the ATP Km app.

PAK2 (PAK65) = PAK2 (PAK65) (Homo sapiens, UniProt Q13177); test: In vitro PAK inhibition assay (Z'-LYTE, SelectScreen), PAK2; conditions: read-out: PAK2 IC50
Description: as §1
The 2×PAK2 (PAK65)/Ser/Thr 20 mixture is prepared in 50 mM HEPES pH 7.5, 0.01% BRIJ-35, 10 mM MgCl2, 1 mM EGTA. The final 10 μL Kinase Reaction consists of 0.29-6 ng PAK2 (PAK65) and 2 μM Ser/Thr 20 in 50 mM HEPES pH 7.5, 0.01% BRIJ-35, 10 mM MgCl2, 1 mM EGTA.
as §2, §3, §4, §5, §6
(§7) SelectScreen® Kinase Profiling Service uses XLfit from IDBS.
(§8) The representative IC50 value with a known inhibitor for each kinase was determined at the ATP bin nearest to the ATP Km app.

PAK3 = PAK3 (Homo sapiens, UniProt O75914); test: In vitro PAK inhibition assay (Z'-LYTE, SelectScreen), PAK3
Description: as §1
The 2×PAK3/Ser/Thr 20 mixture is prepared in 50 mM HEPES pH 7.5, 0.01% BRIJ-35, 10 mM MgCl2, 1 mM EGTA.
as §2, §3, §4, §5, §6, §7, §8

PAK1 = PAK1 (Homo sapiens, UniProt Q13153); test: In vitro PAK inhibition assay (Z'-LYTE, SelectScreen), PAK1; conditions: read-out: PAK1 IC50
Description: as §1
The 2×PAK1/Ser/Thr 19 mixture is prepared in 50 mM HEPES pH 7.5, 0.01% BRIJ-35, 10 mM MgCl2, 1 mM EGTA.
as §2, §3, §4, §5, §6, §7, §8

Sequence of PAK3 (O75914 1-544 isoform O75914-2): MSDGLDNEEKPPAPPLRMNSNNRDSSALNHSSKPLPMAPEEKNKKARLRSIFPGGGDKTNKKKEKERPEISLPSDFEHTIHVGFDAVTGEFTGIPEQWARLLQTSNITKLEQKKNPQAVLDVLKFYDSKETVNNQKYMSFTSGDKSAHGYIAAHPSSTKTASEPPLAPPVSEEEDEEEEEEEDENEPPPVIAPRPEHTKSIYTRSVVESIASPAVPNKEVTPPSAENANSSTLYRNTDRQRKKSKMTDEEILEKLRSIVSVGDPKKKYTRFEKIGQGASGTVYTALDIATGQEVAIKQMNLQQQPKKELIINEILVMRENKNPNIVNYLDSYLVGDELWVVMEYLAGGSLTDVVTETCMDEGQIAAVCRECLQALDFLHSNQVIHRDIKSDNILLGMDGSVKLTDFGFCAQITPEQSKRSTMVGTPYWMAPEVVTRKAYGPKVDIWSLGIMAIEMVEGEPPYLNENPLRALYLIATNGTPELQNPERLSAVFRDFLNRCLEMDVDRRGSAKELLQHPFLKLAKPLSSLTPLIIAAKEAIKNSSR
Sequence of PAK2 (PAK65) (Q13177 whole entry): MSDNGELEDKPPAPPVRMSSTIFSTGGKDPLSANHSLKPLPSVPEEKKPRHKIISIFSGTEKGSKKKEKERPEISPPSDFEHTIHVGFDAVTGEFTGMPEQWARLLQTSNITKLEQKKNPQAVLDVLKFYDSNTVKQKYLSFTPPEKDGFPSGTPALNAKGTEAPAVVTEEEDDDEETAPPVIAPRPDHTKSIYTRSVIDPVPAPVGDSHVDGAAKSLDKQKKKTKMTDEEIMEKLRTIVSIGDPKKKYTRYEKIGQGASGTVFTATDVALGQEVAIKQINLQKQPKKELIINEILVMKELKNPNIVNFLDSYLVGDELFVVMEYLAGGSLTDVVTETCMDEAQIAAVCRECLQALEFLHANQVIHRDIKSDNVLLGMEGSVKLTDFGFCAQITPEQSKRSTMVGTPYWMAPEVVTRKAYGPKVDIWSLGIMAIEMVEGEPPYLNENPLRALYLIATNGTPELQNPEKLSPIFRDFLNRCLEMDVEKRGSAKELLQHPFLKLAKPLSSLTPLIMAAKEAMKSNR
Sequence of PAK4 (O96013 whole entry): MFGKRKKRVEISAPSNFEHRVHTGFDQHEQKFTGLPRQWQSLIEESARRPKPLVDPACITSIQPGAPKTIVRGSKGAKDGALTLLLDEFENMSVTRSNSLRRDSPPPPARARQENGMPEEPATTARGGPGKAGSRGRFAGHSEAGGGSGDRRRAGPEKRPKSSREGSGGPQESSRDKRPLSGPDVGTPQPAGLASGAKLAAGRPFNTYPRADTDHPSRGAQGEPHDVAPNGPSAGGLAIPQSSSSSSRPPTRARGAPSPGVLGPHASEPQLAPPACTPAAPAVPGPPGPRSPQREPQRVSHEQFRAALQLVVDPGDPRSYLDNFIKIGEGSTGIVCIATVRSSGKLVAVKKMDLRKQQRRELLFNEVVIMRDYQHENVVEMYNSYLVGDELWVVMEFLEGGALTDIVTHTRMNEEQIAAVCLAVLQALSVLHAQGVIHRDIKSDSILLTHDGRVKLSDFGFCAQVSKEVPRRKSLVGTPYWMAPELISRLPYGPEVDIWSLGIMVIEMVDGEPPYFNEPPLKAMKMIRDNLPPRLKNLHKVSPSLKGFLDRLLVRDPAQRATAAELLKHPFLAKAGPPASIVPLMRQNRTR
Sequence of PAK1 (Q13153 whole entry): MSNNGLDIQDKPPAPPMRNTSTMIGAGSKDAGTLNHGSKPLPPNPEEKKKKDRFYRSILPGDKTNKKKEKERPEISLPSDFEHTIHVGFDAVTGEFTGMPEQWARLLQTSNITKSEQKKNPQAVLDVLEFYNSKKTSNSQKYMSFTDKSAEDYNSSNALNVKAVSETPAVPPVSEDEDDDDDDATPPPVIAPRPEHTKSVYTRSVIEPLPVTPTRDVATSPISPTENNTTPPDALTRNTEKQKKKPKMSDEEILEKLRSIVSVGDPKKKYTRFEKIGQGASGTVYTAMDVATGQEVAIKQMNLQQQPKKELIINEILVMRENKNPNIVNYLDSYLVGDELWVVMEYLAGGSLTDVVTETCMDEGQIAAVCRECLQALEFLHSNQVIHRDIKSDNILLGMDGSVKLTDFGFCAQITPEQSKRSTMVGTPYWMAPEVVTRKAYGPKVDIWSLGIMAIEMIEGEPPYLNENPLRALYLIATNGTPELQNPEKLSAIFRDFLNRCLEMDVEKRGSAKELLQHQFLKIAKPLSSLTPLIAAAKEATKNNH

Row | Molecule | IC50 (PAK4) [nM] | IC50 (PAK2 (PAK65)) [nM] | IC50 (PAK3; read-out: PAK3 IC50) [nM] | IC50 (PAK1) [nM] | IC50 (PAK3; PAK3 IC50 (nM)) [nM]
1 | CCn1c(=O)c(-c2ccc(-c3cncc(C)n3)cc2Cl)cc2cnc(N[C@H]3CC[C@H](N)CC3)nc21 [Example 85] | > 5000 | < 50 | 50 to 500 | < 50 | –
2 | Cc1cncc(-c2ccc(-c3cc4cnc(NC5CCOCC5)nc4n(Cc4ccccc4F)c3=O)c(Cl)c2)n1 [Example 36] | > 5000 | 50 to 500 | 50 to 500 | 50 to 500 | –
3 | Cc1cncc(-c2ccc(-c3cc4cnc(NC5CC5)nc4n(CCN)c3=O)c(Cl)c2)n1 [Example 111] | > 5000 | 50 to 500 | 50 to 500 | 50 to 500 | –
4 | Cc1cncc(-c2ccc(-c3cc4cnc(NC(C)C)nc4n([C@H]4CC[C@H](N)CC4)c3=O)c(Cl)c2)n1 [Example 116] | 500 to 5000 | < 50 | < 50 | < 50 | –
5 | CCn1c(=O)c(-c2ccc(-c3cncc(C)c3)cc2Cl)cc2cnc(N[C@@H]3CCOC3)nc21 [Example 61] | > 5000 | 50 to 500 | 500 to 5000 | 50 to 500 | –
6 | Cc1nccnc1-c1ccc(-c2cc3cnc(NC4CCOCC4)nc3n(Cc3ccccc3)c2=O)c(Cl)c1 [Example 16] | > 5000 | < 50 | 50 to 500 | < 50 | –
7 | 6-(2-chloro-4-(5-methyl-1,2,4-oxadiazol-3-yl)phenyl)-2-(4-(1-methylpiperidin-4-yl)phenylamino)pyrido[2,3-d]pyrimidin-7(8H)-one [Example 95] | > 5000 | 50 to 500 | 500 to 5000 | 50 to 500 | –
8 | CCn1c(=O)c(-c2ccc(-c3cncc(C)n3)cc2Cl)cc2cnc(NC3CCOC3)nc21 (centres unmarked) [Example 29] | > 5000 | < 50 | 50 to 500 | 50 to 500 | –
9 | CCn1c(=O)c(-c2ccc(-c3nccnc3C)cc2Cl)cc2cnc(N[C@@H]3CCOC3)nc21 [Example 58] | > 5000 | 50 to 500 | 500 to 5000 | 50 to 500 | –
10 | CCn1c(=O)c(-c2ccc(-c3cncc(C)n3)cc2Cl)cc2cnc(NCC3CCC(N)CC3)nc21 (centres unmarked) [Example 131] | > 5000 | < 50 | 50 to 500 | < 50 | –
11 | Cc1cncc(-c2ccc(-c3cc4cnc(N[C@@H]5CCOC5)nc4n(C4CCNCC4)c3=O)c(Cl)c2)n1 [Example 105] | > 5000 | 50 to 500 | 50 to 500 | 50 to 500 | –
12 | CCn1c(=O)c(-c2ccc(-c3cncc(C)n3)cc2Cl)cc2cnc(N[C@H]3CC[C@H](CN)CC3)nc21 [Example 87] | > 5000 | < 50 | < 50 | < 50 | –
13 | Cc1cncc(-c2ccc(-c3cc4cnc(NCC5CC5)nc4n([C@H]4CC[C@H](N)CC4)c3=O)c(Cl)c2)n1 [Example 113] | 500 to 5000 | < 50 | < 50 | < 50 | –
14 | CCn1c(=O)c(-c2ccc(-c3nccnc3C)cc2Cl)cc2cnc(NC3CCCN(C)C3)nc21 (centres unmarked) [Example 81] | > 5000 | 50 to 500 | > 5000 | 50 to 500 | –
15 | CCn1c(=O)c(-c2cc(C)c(-c3cncc(C)n3)cc2Cl)cc2cnc(N[C@@H]3CCOC3)nc21 [Example 71] | > 5000 | < 50 | 50 to 500 | < 50 | –
16 | CCn1c(=O)c(-c2ccc(-c3cnc(C)s3)cc2Cl)cc2cnc(N[C@@H]3CCOC3)nc21 [Example 55] | > 5000 | 50 to 500 | 500 to 5000 | 50 to 500 | –
17 | CCn1c(=O)c(-c2ccc(-c3cncc(C)n3)cc2Cl)cc2cnc(NC3C[C@@H](C)O[C@@H](C)C3)nc21 (some centres unmarked) [Example 37] | > 5000 | 50 to 500 | 50 to 500 | < 50 | –
18 | CCn1c(=O)c(-c2ccc(-c3cnc(C)cn3)cc2Cl)cc2cnc(N[C@@H]3CCOC3)nc21 [Example 50] | > 5000 | 50 to 500 | 500 to 5000 | 50 to 500 | –
19 | CCn1c(=O)c(-c2ccc(-c3ccn(C)n3)cc2Cl)cc2cnc(N[C@@H]3CCOC3)nc21 [Example 63] | > 5000 | 50 to 500 | 500 to 5000 | 50 to 500 | –

Row | Molecule | IC50 (PAK4) [nM] | IC50 (PAK2 (PAK65)) [nM] | IC50 (PAK3; read-out: PAK3 IC50) [nM] | IC50 (PAK1) [nM] | IC50 (PAK3; PAK3 IC50 (nM)) [nM]
20 | Cc1cncc(-c2ccc(-c3cc4cnc(NC5CCCCC5)nc4n([C@H]4CC[C@H](N)CC4)c3=O)c(Cl)c2)n1 [Example 114] | > 5000 | < 50 | 50 to 500 | < 50 | –
21 | Cc1nccnc1-c1ccc(-c2cc3cnc(NC4CC4)nc3n([C@H]3CC[C@H](N)CC3)c2=O)c(Cl)c1 [Example 119] | > 5000 | < 50 | < 50 | < 50 | –
22 | COCCn1c(=O)c(-c2ccc(-c3cnccn3)cc2Cl)cc2cnc(NC3CCOC3)nc21 (centres unmarked) [Example 53] | > 5000 | 50 to 500 | 500 to 5000 | 50 to 500 | –
23 | CCn1c(=O)c(-c2ccc(-c3cccnc3C)cc2Cl)cc2cnc(NC3CCOCC3)nc21 [Example 45] | > 5000 | 500 to 5000 | 500 to 5000 | 50 to 500 | –
24 | Cc1cncc(-c2ccc(-c3cc4cnc(N[C@@H]5CCOC5)nc4n(CCN)c3=O)c(Cl)c2)n1 [Example 99] | > 5000 | < 50 | 50 to 500 | < 50 | –
25 | CCn1c(=O)c(-c2ccc(-c3noc(C)n3)cc2Cl)cc2cnc(NC3CCOCC3)nc21 [Example 4] | > 5000 | 50 to 500 | 50 to 500 | 50 to 500 | –
26 | O=c1c(-c2ccc(-c3ccncn3)cc2Cl)cc2cnc(NC3CCOCC3)nc2n1Cc1ccccc1C(F)(F)F [Example 23] | > 5000 | 50 to 500 | 50 to 500 | 50 to 500 | –
27 | Cc1nc(-c2ccc(-c3cc4cnc(NC5CCOCC5)nc4[nH]c3=O)c(Cl)c2)no1 [Example 11] | > 5000 | 50 to 500 | 50 to 500 | 50 to 500 | –
28 | CCn1c(=O)c(-c2ccc(-c3cncc(C)n3)cc2Cl)cc2cnc(NCCC3CCNCC3)nc21 [Example 135] | > 5000 | < 50 | < 50 | < 50 | –
29 | CCn1c(=O)c(-c2ccc(-c3cncc(C)n3)cc2Cl)cc2cnc(NC3CCOCC3)nc21 [Example 7] | > 5000 | < 50 | 50 to 500 | < 50 | –
30 | CCn1c(=O)c(-c2ccc(-c3cncc(C)n3)cc2Cl)cc2cnc(NCCCC3CCN(C)CC3)nc21 [Example 68] | > 5000 | 50 to 500 | 50 to 500 | 50 to 500 | –
31 | CCn1c(=O)c(-c2ccc(-c3nccnc3C)cc2Cl)cc2cnc(NC3CCNCC3)nc21 [Example 79] | > 5000 | 500 to 5000 | 500 to 5000 | 500 to 5000 | –
32 | CCn1c(=O)c(-c2ccc(-c3nccnc3C)cc2Cl)cc2cnc(N[C@H]3CC[C@H](N)CC3)nc21 [Example 90, 2-(((trans-1,4)-4-aminocyclohexyl)amino)-6-(2-chloro-4-(3-methylpyrazin-2-yl)phenyl)-8-ethylpyrido[2,3-d]pyrimidin-7(8H)-one] | > 5000 | < 50 | 50 to 500 | 50 to 500 | –
33 | CCn1c(=O)c(-c2ccc(-c3nccnc3C)cc2Cl)cc2cnc(NCCC3CCN(C)CC3)nc21 [Example 91] | > 5000 | < 50 | 50 to 500 | < 50 | –
34 | Cc1cncc(-c2ccc(-c3cc4cnc(NCC(C)C)nc4n([C@H]4CC[C@H](N)CC4)c3=O)c(Cl)c2)n1 [Example 115] | 500 to 5000 | < 50 | < 50 | < 50 | –
35 | CCn1c(=O)c(-c2ccc(-c3cnccc3C)cc2Cl)cc2cnc(N[C@@H]3CCOC3)nc21 [Example 49] | > 5000 | 500 to 5000 | 500 to 5000 | 50 to 500 | –
36 | CCn1c(=O)c(-c2ccc(-c3cncc(C)n3)cc2Cl)cc2cnc(NCCC3CCN(C)CC3)nc21 [Example 67] | > 5000 | – | – | – | 50 to 500
37 | CCn1c(=O)c(-c2cc(C)c(-c3noc(C)n3)cc2Cl)cc2cnc(N[C@@H]3CCOC3)nc21 [Example 92] | – | – | 50 to 500 | – | –

Reference: patent publication US20130116263A1, “PAK INHIBITORS FOR THE TREATMENT OF CELL PROLIFERATIVE DISORDERS” (AFRAXIS, INC., priority 2011, published 2013)
